# In US7160733B2, “Ligand specific to β2-glycoprotein I and use thereof” (priority 2001, dated 2007):
# System: J774A.1 cells
# Test: Liposome binding to macrophages (3H-labeled liposomes, 4° C.)
# Assay type: cell-based, murine
# Protocol: FIG. 10. Effect of phosphatidylserine (PS) or oxLig-1 content on the binding of liposomes to macrophages. A monolayer of J774.A1 cells was incubated for 2 hours at 4° C. with Celgrosser-P medium containing ^3H-labeled liposomes (50 nmol lipid/well). Open circle represents PS-liposomes; closed circle represents PS-Chol-liposomes; open square represents oxLig-1-liposomes; and closed square represents oxLig-1-Chol-liposomes. Data are indicated as the mean± SD of triplicate samples.
# FIG. 11. β2-GPI and anti-β2-GPI monoclonal antibody-dependent binding of ligand-containing liposomes to macrophage. A monolayer of J774.A1 cells was incubated for 2 hours at 4° C. with Celgrosser-P medium containing ^3H-labeled liposomes (50 nmol lipid/well) and WB-CAL-1, in the presence or absence of β2-GPI (200 μg/ml). • A: Binding of PS-liposomes (PS: 50 mol %,) to J774.A1. cells in the presence (closed square) or absence (open square) of β2-GPI (200 μg/ml) • B: Binding of oxLig-1-liposomes (oxLig-1: 40 mol %) to J774.A1 cells in the presence (black bar) or absence (white bar) of β2-GPI (200 μg/ml). • C: A monolayer of J774.A1 cells was incubated for 2 hours at 4° C. with Celgrosser-P medium containing ^3H-labeled synthesized oxLig-1-liposomes (50 nmol lipid/well) and WB-CAL-1, in the presence or absence of β2-GPI (200 μg/ml). Binding of synthesized oxLig-1-liposomes in the absence of β2-GPI and WB-CAL-1 (open circle), binding of synthesized oxLig-1-liposomes in the presence of β2-GPI (open square), binding of synthesized oxLig-1-liposomes in the presence of WB-CAL-1 (closed square), and binding of synthesized oxLig-1-liposomes in the presence of both β2-GPI and WB-CAL-1 (closed circle). Data are indicated as the mean ± SD of triplicate samples.
# A monolayer of J774.A1 cells was incubated for 2 hours at 4° C. with Celgrosser-P medium containing [^3H]-labeled liposomes (containing a predetermined ligand, 50 nmol lipid/well). DPPS-containing liposomes (open squares), oxLig-1-containing liposomes (closed squares), oxLig-2-containing liposomes (closed circles), and 13-COOH-7KC-containing liposomes (closed triangles). Data are indicated as mean± SD of triplicate samples.
# A monolayer of J774.A1 cells was incubated for 2 hours at 4° C. with Celgrosser-P medium containing [^3H]-labeled liposomes (containing a predetermined ligand (30 mmol %), 50 nmol lipid/well) and in the presence (black bars) or absence (white bars) of β2-GPI (200 μg/mL) and WB-CAL-1 ([…]).
# A monolayer culture of murine macrophage-like cells (J774A.1) obtained from Riken Cell Bank (Tsukuba) was maintained in RPMI 1640 medium supplemented with 10% fetal carf serum (FCS). For binding experiments, the cells (8×10^5 cells/mL, RPMI1640) were dispensed in an amount of 1 mL/well into a 12-well culture plate (Sumitomo Bakelite Co., Ltd.) and were incubated for 24 hours at 37° C., then the culture broth was replaced with Celgrosser-P medium (Sumitomo Pharmaceutical Co.). After one hour of preincubation at 37° C., 50 μL of liposomes (50 nmol lipid/well) with or without β2-GPI (200 μg/mL) and WB-CAL-1 (100 μg/mL) were added to each culture, and the cells were incubated at 4° C. and/or 37° C. The wells were next washed with chilled PBS, and the cells were lysed by adding 1 mL of 0.1N NaOH. An aliquot was taken for determination of cellular proteins and of radioactivity associated with the cells. Protein concentration was determined in a manner as described above.
compound,measurement,setting,value
"CC(C)CCC[C@@H](C)[C@H]1CC[C@H]2[C@@H]3C(=O)C=C4C[C@@H](OC(=O)CCCCCCCC(=O)O)CC[C@]4(C)[C@H]3CC[C@]12C [oxLig-1, 9-oxo-9-(7-ketocholest-5-en-3β-yloxy)nonanoic acid]",direct binding of liposomes to macrophages,"J774A.1 cells, 2 hours at 4° C., 50 nmol lipid/well, without β2-GPI and antibody, result in words",relatively low or negligible small
same,uptake of ligand-containing liposomes to J774A.1 cells in the presence of both β2-GPI and WB-CAL-1,"liposomes containing the ligand, compared with cholesteryl linoleate-liposomes (control), FIG. 20, result in words",significantly enhanced
same,ligand concentration in liposomes at which binding to macrophages reached almost plateau,"synthesized oxLig-1-liposomes, J774A.1 cells",10 mol %
